Data on 15 compounds can be found in patent US9221790B2, “Benzamide derivatives” (Dong-A Pharm. Co., Ltd., priority 2010, dated 2015).

SMILES strings stand for the structures. Where two headings read alike, the source gives them in different places.

For one series, the target named is hERG potassium channel (Homo sapiens (Human), UniProt Q12809). Description: Binding affinity for hERG potassium channel ([H3]-Astemizole radioligand, HEK-293 membrane homogenates, MDS Pharma Service). To be noted: probe [H3]-Astemizole (1.5 nM), 10 μM test material, 1.5 nM [H3]-Astemizole, hERG K+ channel, HEK-293 membranes. As to the method: The binding affinity of the compounds for the human ether-a-go-go-related gene (hERG) potassium (K+) channel which is associated with cardiac QT prolongation was assayed in MDS Pharma Service (Catalog No. 265900). Membrane homogenates were obtained from mammalian HEK-293 cells expressing the hERG potassium channel and then used in the binding assay experiment. For the binding assay experiment, the membrane homogenates were respectively mixed and incubated with 10 μM of test materials and 1.5 nM of [H3]-Astemizole (Perkin Elmer). After the incubation was completed, the radioactivity bound to the hERG K+ channel was counted. The affinity of each test material for the hERG K+ channel was calculated from % inhibition of specific binding of the radioligand to the hERG K+ channel, resulting from the action of the test material.
(Block of hERG is tested as a sign of cardiac risk.)

The test system of the next series is ICR mice. Description: Acute oral toxicity of compounds in mice. The class given is in vivo. To be noted: male ICR mice, single oral dose 1 g/10 mL/kg, 2 weeks observation. As to the method:
200 mg of each of Example compounds was triturated in 1% hydroxypropyl methyl-cellulose, and the resulting triturations were then orally administered to 5-week old male ICR mice (20 g±2 g, n=5) at a dose of 1 g/10 mL/kg. The minimum lethal dose (MLD, mg/kg) of the individual compounds was investigated by the observation of the mortality, body weight, clinical symptoms and the like of animals over the entire experimental period of 2 weeks.

In another series the target is human 5-HT4 receptor (Homo sapiens (Human), UniProt Q13639). Description: Binding affinity of compounds for 5-HT4 receptor ([H3]-GR113808 radioligand, COS-7 membrane homogenates). As to the method:
The binding affinity of the compounds for a human 5-HT4 receptor was assayed according to the method as disclosed in the literature [Wyngaert et al., Journal of Neurochemistry, (1997) 69, 1810-1819]. For this purpose, COS-7 cells expressing the human 5-HT4 receptor were constructed and homogenized to obtain membrane homogenates which were then used in binding assay experiments. For the binding assay, the membrane homogenates were respectively mixed and incubated with different concentrations of test materials and [H3]-GR113808 (Amersham Biosciences). The concentrations of the individual test materials were set to 4 μM, 1 μM, 0.25 μM, and 0.0625 μM, respectively, and the concentration of [H3]-GR113808 was set to 0.595 nM. After the incubation was completed, the reaction products were collected in GF/B glass fiber filters using a Packard cell harvester, and the bound radioactivity was then determined using a liquid cell scintillation counter (Packard TopCount NXT™, Perkin Elmer). Specific binding of the radioligand to the 5-HT4 receptor was calculated by subtracting the non-specific binding of the radioligand from the total radioligand binding. IC50 was calculated from % inhibition of specific binding of the radioligand to the 5-HT4 receptor, with respect to varying concentrations of the test materials.

A further series concerns SD rats. Description: Evaluation of gastric emptying. The class given is in vivo, rat. To be noted: 5 mg/kg oral, semi-solid diet 1 hour after dosing, stomach extracted 50 minutes after meal. As to the method:
Evaluation of gastric emptying was carried out based on the method described in Iwanaga Y, et al., Jpn J Pharmacol. 1991, 56(3), 261-269. As experimental animals, SD rats (240 to 250 g) were used and divided into groups (n=5 to 6). On the day prior to the experiment, animals were fasted for 18 hours. Test materials were formulated as suspensions thereof in 0.5% (w/v) methylcellulose and were orally administered to the animals at a dose of 5 mg/kg. 1 hour after the oral administration of the test materials, 2 mL of a semi-solid diet was orally administered to the animals. The semi-solid diet was in the form of porridge formulated by pulverizing a standard solid diet together with distilled water in a mixer. 50 minutes after the administration of the semi-solid diet, the animals were sacrificed by cervical dislocation. After carrying out an abdominal incision, the stomach was extracted from the animals. The weight of diet remaining in the stomach was measured to thereby determine the gastric emptying rate (%). The gastric emptying rate was calculated according to the following equation.
Gastric Emptying Rate (%)=(1−X/Y)*100
X: Weight of diet remaining in the stomach extracted 50 minutes after administration of meal
Y: Weight of diet remaining in the stomach extracted immediately after administration of meal

Setting [1] is: inhibition of specific binding of 0.595 nM [H3]-GR113808 to human 5-HT4 receptor, COS-7 membranes, read-out: IC50.

Broadly, the inhibition is the share of the control response that was lost under treatment. One may read the IC50 as the midpoint of a concentration-inhibition curve.

Chain of hERG potassium channel (Q12809 whole entry): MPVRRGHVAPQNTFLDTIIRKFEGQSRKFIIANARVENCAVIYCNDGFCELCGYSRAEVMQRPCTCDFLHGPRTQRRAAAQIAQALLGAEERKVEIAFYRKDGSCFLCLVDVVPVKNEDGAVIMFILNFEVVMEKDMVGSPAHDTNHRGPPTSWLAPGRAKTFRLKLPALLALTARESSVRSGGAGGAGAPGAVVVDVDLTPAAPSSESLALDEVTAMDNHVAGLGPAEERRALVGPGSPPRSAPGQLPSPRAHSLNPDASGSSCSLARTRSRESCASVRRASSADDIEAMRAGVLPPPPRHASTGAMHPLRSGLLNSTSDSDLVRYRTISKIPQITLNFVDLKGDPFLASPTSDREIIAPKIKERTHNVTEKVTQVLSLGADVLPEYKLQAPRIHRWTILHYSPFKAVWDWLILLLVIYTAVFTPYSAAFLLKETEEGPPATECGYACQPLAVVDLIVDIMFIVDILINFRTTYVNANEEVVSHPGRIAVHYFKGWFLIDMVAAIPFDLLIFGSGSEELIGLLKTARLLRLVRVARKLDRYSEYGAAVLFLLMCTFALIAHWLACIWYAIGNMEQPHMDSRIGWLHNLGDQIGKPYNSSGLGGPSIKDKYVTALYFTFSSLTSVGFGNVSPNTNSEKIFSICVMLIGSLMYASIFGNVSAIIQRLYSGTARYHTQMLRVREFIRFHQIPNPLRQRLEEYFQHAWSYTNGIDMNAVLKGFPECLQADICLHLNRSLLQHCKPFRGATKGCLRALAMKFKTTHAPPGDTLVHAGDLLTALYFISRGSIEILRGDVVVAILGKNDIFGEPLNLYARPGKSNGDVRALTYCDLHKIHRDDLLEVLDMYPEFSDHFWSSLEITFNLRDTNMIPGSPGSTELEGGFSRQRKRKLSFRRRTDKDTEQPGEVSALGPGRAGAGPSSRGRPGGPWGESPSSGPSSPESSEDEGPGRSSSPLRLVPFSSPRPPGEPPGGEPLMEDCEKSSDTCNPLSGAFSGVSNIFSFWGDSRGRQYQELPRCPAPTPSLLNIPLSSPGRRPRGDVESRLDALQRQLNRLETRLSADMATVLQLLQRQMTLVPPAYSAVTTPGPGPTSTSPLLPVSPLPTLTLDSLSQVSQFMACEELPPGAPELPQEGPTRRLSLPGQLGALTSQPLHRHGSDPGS
Chain of human 5-HT4 receptor (Q13639 whole entry): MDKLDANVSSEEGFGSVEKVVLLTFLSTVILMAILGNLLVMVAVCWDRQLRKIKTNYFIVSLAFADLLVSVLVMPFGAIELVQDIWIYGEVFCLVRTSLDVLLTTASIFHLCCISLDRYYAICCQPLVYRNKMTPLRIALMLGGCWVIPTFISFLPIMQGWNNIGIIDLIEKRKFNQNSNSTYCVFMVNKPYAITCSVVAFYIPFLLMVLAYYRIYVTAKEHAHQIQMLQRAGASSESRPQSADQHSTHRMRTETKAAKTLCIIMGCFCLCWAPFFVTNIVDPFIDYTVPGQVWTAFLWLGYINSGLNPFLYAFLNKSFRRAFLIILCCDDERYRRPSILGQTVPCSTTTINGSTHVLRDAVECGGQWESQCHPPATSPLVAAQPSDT

In turn, `COc1cc(N)c(Cl)cc1C(=O)NCC1CCN(CCCn2cncn2)CC1` [Example 1, N-((1-(3-(1,2,4-triazol-1-yl)propyl)piperidin-4-yl)methyl)-4-amino-5-chloro-2-methoxybenzamide] displayed an inhibition at 10 μM at hERG potassium channel of 1%. For the same compound, the “Minimum lethal dose (MLD)” value in the series on ICR mice is given as more than 1000 mg/kg. On human 5-HT4 receptor (setting [1]), the 50% inhibitory concentration (IC50) was 0.226 nM. The same compound came in with a Gastric emptying rate with SD rats of 43.0%.

With `COc1cc(N)c(Cl)cc1C(=O)NCC1CCN(CCCn2cnnn2)CC1` [Example 2, N-((1-(3-(tetrazol-1-yl)propyl)piperidin-4-yl)methyl)-4-amino-5-chloro-2-methoxybenzamide], the inhibition at 10 μM on hERG potassium channel came to 4%. Moreover, the “Minimum lethal dose (MLD)” value in the series on ICR mice is more than 1000 mg/kg. Also, the concentration for half-maximal inhibition (IC50) at human 5-HT4 receptor (setting [1]) was found to be 0.164 nM. The Gastric emptying rate with SD rats is on record as 52.8%.

In the case of `COc1cc(N)c(Cl)cc1C(=O)NCC1CCN(CCCn2ccc3ccccc32)CC1` [Example 3, N-((1-(3-(indol-1-yl)propyl)piperidin-4-yl)methyl)-4-amino-5-chloro-2-methoxybenzamide], the “Minimum lethal dose (MLD)” value in the series on ICR mice is given as more than 1000 mg/kg. Also, at human 5-HT4 receptor (setting [1]), the IC50 amounted to 0.039 nM. In the series on SD rats, the Gastric emptying rate was found to be 45.2%.

For `COc1cc(N)c(Cl)cc1C(=O)NCC1CCN(CCCn2ccnc2C)CC1` [Example 4, N-((1-(3-(2-methylimidazol-1-yl)propyl)piperidin-4-yl)methyl)-4-amino-5-chloro-2-methoxybenzamide], the inhibition at 10 μM on hERG potassium channel turned out to be 14%. The “Minimum lethal dose (MLD)” value in the series with ICR mice was more than 1000 mg/kg. Further, the IC50 on human 5-HT4 receptor (setting [1]) is 0.229 nM. Moreover, in the series on SD rats, the Gastric emptying rate is reported as 46.4%.

On to `COc1cc(N)c(Cl)cc1C(=O)NCC1CCN(CCCCCn2ccc3ccccc32)CC1` [Example 5, N-((1-(5-(indol-1-yl)pentyl)piperidin-4-yl)methyl)-4-amino-5-chloro-2-methoxybenzamide], for which, in the series on ICR mice, the “Minimum lethal dose (MLD)” value is recorded as more than 1000 mg/kg. Also, the IC50 at human 5-HT4 receptor (setting [1]) was 0.005 nM. The compound also registered a Gastric emptying rate in the series on SD rats of 52.0%.

`COc1cc(N)c(Cl)cc1C(=O)NCC1CCN(CCCCCn2ccnn2)CC1` [Example 6, N-((1-(5-(1,2,3-triazol-1-yl)pentyl)piperidin-4-yl)methyl)-4-amino-5-chloro-2-methoxybenzamide]: on hERG potassium channel, the inhibition at 10 μM was 8%. Moreover, in the series on ICR mice, the “Minimum lethal dose (MLD)” value is reported as more than 1000 mg/kg. Further, the half-maximal inhibitory concentration (IC50) at human 5-HT4 receptor (setting [1]) is 0.103 nM. In addition, the Gastric emptying rate with SD rats is recorded as 46.0%.

For the compound `COc1cc(N)c(Cl)cc1C(=O)NCC1CCN(CCCn2ccnn2)CC1` [Example 7, N-((1-(3-(1,2,3-triazol-1-yl)propyl)piperidin-4-yl)methyl)-4-amino-5-chloro-2-methoxybenzamide], the inhibition at 10 μM at hERG potassium channel stood at 7%. Besides, in the series on ICR mice, the “Minimum lethal dose (MLD)” value is more than 1000 mg/kg. The 50% inhibitory concentration (IC50) at human 5-HT4 receptor (setting [1]) was determined as 0.067 nM. In the series on SD rats, this compound returned a Gastric emptying rate of 56.1%.

The compound `COc1cc(N)c(Cl)cc1C(=O)NCC1CCN(CCCn2nccn2)CC1` [Example 8, N-((1-(3-(1,2,3-triazol-2-yl)propyl)piperidin-4-yl)methyl)-4-amino-5-chloro-2-methoxybenzamide] yielded an inhibition at 10 μM at hERG potassium channel of 15%. The “Minimum lethal dose (MLD)” value in the series with ICR mice is recorded as more than 1000 mg/kg. Moreover, at human 5-HT4 receptor (setting [1]), the IC50 was found to be 0.182 nM. This compound returned a Gastric emptying rate in the series with SD rats of 49.1%.

At hERG potassium channel, `COc1cc(N)c(Cl)cc1C(=O)NCC1CCN(Cc2cccnc2)CC1` [Example 9, N-((1-(pyridin-3-ylmethyl)piperidin-4-yl)methyl)-4-amino-5-chloro-2-methoxybenzamide] returned an inhibition at 10 μM of 6%. Besides, the “Minimum lethal dose (MLD)” value with ICR mice is more than 1000 mg/kg. Further, the 50% inhibitory concentration (IC50) on human 5-HT4 receptor (setting [1]) was determined as 0.267 nM. In the series with SD rats, this compound displayed a Gastric emptying rate of 51.2%.

Consider `COc1cc(N)c(Cl)cc1C(=O)NCC1CCN(Cc2cn(C)c3ccccc23)CC1` [Example 10, N-((1-((1-methylindol-3-yl)methyl)piperidin-4-yl)methyl)-4-amino-5-chloro-2-methoxybenzamide], for which the “Minimum lethal dose (MLD)” value in the series with ICR mice is on record as more than 1000 mg/kg. For the same compound, the IC50 on human 5-HT4 receptor (setting [1]) stood at 0.076 nM. In addition, the Gastric emptying rate with SD rats is given as 59.1%.

On hERG potassium channel, `COc1cc(N)c(Cl)cc1C(=O)NCC1CCN(Cc2ncc[nH]2)CC1` [Example 11, N-((1-(imidazol-2-ylmethyl)piperidin-4-yl)methyl)-4-amino-5-chloro-2-methoxybenzamide] gave an inhibition at 10 μM of 21%. Besides, in the series with ICR mice, the “Minimum lethal dose (MLD)” value is more than 1000 mg/kg. Besides, the concentration for half-maximal inhibition (IC50) at human 5-HT4 receptor (setting [1]) was found to be 0.454 nM. Also, the Gastric emptying rate in the series on SD rats worked out at 43.1%.

As for `COc1cc(N)c(Cl)cc1C(=O)NCC1CCN(Cc2cccn2C)CC1` [Example 12, N-((1-((1-methylpyrrol-2-yl)methyl)piperidin-4-yl)methyl)-4-amino-5-chloro-2-methoxybenzamide], the inhibition at 10 μM on hERG potassium channel turned out to be 32%. Besides, in the series with ICR mice, the “Minimum lethal dose (MLD)” value was more than 1000 mg/kg. For the same compound, the IC50 on human 5-HT4 receptor (setting [1]) is 0.421 nM. Further, in the series on SD rats, the Gastric emptying rate is 62.0%.

`COc1cc(N)c(Cl)cc1C(=O)NCC1CCN(Cc2ccc(F)cc2)CC1` [Example 13, N-((1-(4-fluorobenzyl)piperidin-4-yl)methyl)-4-amino-5-chloro-2-methoxybenzamide] registered an inhibition at 10 μM on hERG potassium channel of 52%. Also, the “Minimum lethal dose (MLD)” value with ICR mice is given as more than 1000 mg/kg. Further, the IC50 on human 5-HT4 receptor (setting [1]) is 0.134 nM. The Gastric emptying rate with SD rats is listed as 52.3%.

With `COc1cc(N)c(Cl)cc1C(=O)NCC1CCN(Cc2ccc(O)cc2)CC1` [Example 14, N-((1-(4-hydroxybenzyl)piperidin-4-yl)methyl)-4-amino-5-chloro-2-methoxybenzamide], on hERG potassium channel, the inhibition at 10 μM turned out to be 40%. Besides, the “Minimum lethal dose (MLD)” value in the series on ICR mice is listed as more than 1000 mg/kg. Also, the IC50 on human 5-HT4 receptor (setting [1]) is 0.375 nM. The compound further gave a Gastric emptying rate in the series on SD rats of 42.1%.

For the compound `COc1cc(N)c(Cl)cc1C(=O)NCC1CCN(CCc2c[nH]c3ccccc23)CC1` [Example 15, N-((1-(2-(indol-3-yl)ethyl)piperidin-4-yl)methyl)-4-amino-5-chloro-2-methoxybenzamide], the “Minimum lethal dose (MLD)” value in the series with ICR mice is listed as more than 1000 mg/kg. The compound further had an IC50 at human 5-HT4 receptor of 0.002 nM. The compound further displayed a Gastric emptying rate with SD rats of 41.3%.
